The values that follow come from patent publication US8355136B2, “Sub-micron surface plasmon resonance sensor systems” (Indiana University Research and Technology Corporation, priority 2005, dated 2013).

Where two headings read alike, the source gives them in different places.

In experiment [1] the target is T1, GOx (Aspergillus niger, UniProt P13006). The experiment can be described thus: MSPR sensor monitoring of Gox enzymatic activity under substrate flow. The note with it: for enzymatic activity response of Gox: flow of substrate, concentration not given.
T1 sequence (P13006 23-605 limits assumed): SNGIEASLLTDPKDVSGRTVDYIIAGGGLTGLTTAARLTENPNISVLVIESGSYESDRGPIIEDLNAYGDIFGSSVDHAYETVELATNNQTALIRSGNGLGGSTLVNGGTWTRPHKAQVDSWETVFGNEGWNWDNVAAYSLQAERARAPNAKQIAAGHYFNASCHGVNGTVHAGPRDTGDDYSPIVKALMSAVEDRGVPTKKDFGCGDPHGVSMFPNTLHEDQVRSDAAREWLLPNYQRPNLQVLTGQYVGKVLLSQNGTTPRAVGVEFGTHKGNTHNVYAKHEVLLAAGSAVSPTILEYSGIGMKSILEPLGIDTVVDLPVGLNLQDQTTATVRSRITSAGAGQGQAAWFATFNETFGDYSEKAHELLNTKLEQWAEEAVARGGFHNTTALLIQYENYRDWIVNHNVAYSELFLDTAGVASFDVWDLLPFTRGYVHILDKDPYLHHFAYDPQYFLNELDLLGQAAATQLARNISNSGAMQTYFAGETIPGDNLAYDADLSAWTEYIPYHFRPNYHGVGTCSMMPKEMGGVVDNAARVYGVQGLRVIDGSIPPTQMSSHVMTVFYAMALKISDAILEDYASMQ
The target in experiment [2] is T1, GOx. The note with it: cited from earlier work.
For experiment [3], the target named is T1, GOx. The following applies: for relative rate ± error / Ssubstrate − SL-Glu / Isubstrate / S/N / signal (Ibaseline − Isubstrate): 100 mM in PBS, 660 nm; for relative rate ± error: from exponential fits to the time series; for Ssubstrate − SL-Glu: signal minus L-Glu reference signal; for Isubstrate / S/N / signal (Ibaseline − Isubstrate): single MSPRS.
Method: The resonance measured at 660 nm wavelength was used to monitor reaction kinetics because it had the least overlap with neighboring peaks and because it lay in the red-NIR (near infra-red) optical window of tissue transparency, which allows use of MSPRSs to study complex media like blood, blood plasma and serum.
After depositing the cross-linker, we rinsed the end of the tubing for 10 s with DI-water using a 1 mL syringe. […] After the MSPR sensor signal reached a stable plateau indicating reaction saturation, the sensors were rinsed with DI-water until no further change in signal was recorded.
Experiment [4] is described as follows: MSPR sensor, monolayer formation / adsorption kinetics on the gold surface.
Experiment [5] in a line: Biacore 3000 bare-gold-surface SPR chip, gold-DTSSP binding. Background: SPR reads the build-up and loss of mass on a sensor chip optically.
For experiment [6] the following is noted: Biacore 3000.

Consider `O=CC[C@@H](O)[C@H](O)[C@H](O)CO` [2Do-Glu, 2-Deoxy-D-Glucose], for which the “enzymatic activity response of Gox” value at GOx [1] is listed as “no enzymatic activity response”. Also, at GOx [2], the “reaction rate with GOx as % of the βD-Glu rate” value (shortened to “reaction rate with GOx as %”) was 20%. Besides, on GOx [3], the “relative rate ± error” value came to 0.06 ± 65%, the “Ssubstrate − SL-Glu” value is recorded as 14 counts/s, the Isubstrate is reported as 22190 counts/s and the S/N is on record as 57 (17.5 dB). For the same compound, the “signal (Ibaseline − Isubstrate)” value on GOx [3] was determined as 535 counts/s.
As for `OC[C@H]1OC(O)[C@@H](O)[C@@H](O)[C@@H]1O` (stereo partly drawn) [D-Man], on GOx [2], the “reaction rate with GOx as %” value is 1%. At GOx [3], the “relative rate ± error” value is recorded as 0.24 ± 28%, the “Ssubstrate − SL-Glu” value is on record as 58 counts/s, the Isubstrate is given as 22168 counts/s and the S/N is reported as 36 (15.5 dB). Further, the “signal (Ibaseline − Isubstrate)” value on GOx [3] came out at 579 counts/s.
`O=C(CCSSCCC(=O)ON1C(=O)CC(S(=O)(=O)O)C1=O)ON1C(=O)CC(S(=O)(=O)O)C1=O` (centres unmarked) [DTSSP]: the “time constant of monolayer formation” value in experiment [4] (Example 5, phosphate buffer pH 5.8 and DI water) was found to be 105 ± 8 s. The “reaction time, gold-DTSSP binding” value is 209 ± 7 s in experiment [4] (Example 6, MSPR sensor, 660 nm, exponential fit) and 184 ± 3 s in experiment [5] (exponential fitting). In addition, the “gold-DTSSP reaction time longer on MSPR sensor than on Biacore” value in experiment [4] (MSPR sensor versus Biacore 3000) is “ca. 12%”. For the same compound, the “decrease of MSPR sensor-emitted intensity at 660 nm” value in experiment [4] (saturated gold-DTSSP reaction, from water baseline) was 1,481 counts/s. For the same compound, in experiment [5], the SPR binding signal came to 643 RU.
As to `O=C[C@@H](O)[C@H](O)[C@@H](O)[C@@H](O)CO` [L-Glu, L-Glucose], the “enzymatic activity response of Gox” value at GOx [1] is “no enzymatic activity response”. The “reaction rate with GOx as %” value on GOx [2] is reported as 0%. At GOx [3], the “relative rate ± error” value is on record as 0.00 ± 0%, the “Ssubstrate − SL-Glu” value is recorded as 0 counts/s, the Isubstrate is recorded as 22236 counts/s and the S/N is on record as 21 (13.2 dB). Also, the “signal (Ibaseline − Isubstrate)” value at GOx [3] came out at 521 counts/s. Besides, the “interaction between substrate and sensor” value on GOx [3] (wash-in and wash-out, PBS baseline) was “absence of both specific and non-specific interactions”.
For `CCCCCCCCCCCCS` [dodecanethiol], the “time constant for the film formation” value in experiment [4] (100 mM concentration, from ethanol, first order exponential decay fit) was found to be 382 ± 7 s.
With `OC[C@H]1O[C@H](O)[C@H](O)[C@@H](O)[C@@H]1O` [αD-Glu, α-D-glucose], the “reaction rate with GOx as %” value at GOx [2] is given as 0.64%.
`OC[C@H]1O[C@@H](O)[C@H](O)[C@@H](O)[C@@H]1O` [β-D+Glucose]: the “enzymatic activity of Gox detected” value at GOx [1] (1 mM in PBS 1×) was “the response was much slower”; at GOx [1] (100 mM in PBS 1×), “able to detect the enzymatic activity”.
Consider glucose oxidase [GOx], for which, in experiment [6], the SPR binding signal is 553 RU. Moreover, the “reaction time, DTSSP-GOx binding” value in experiment [6] (exponential fitting) amounted to 211 ± 4 s and the “reaction time, DTSSP-GOx binding” value (Example 6, MSPR sensor, exponential fit) stood at 211 ± 4 s. Also, the “decrease of output signal on binding” value (6.25 μM in DI-water, from DTSSP baseline) is listed as 1,424 counts/s.
